Patent publication US20130217595A1, “METHOD FOR THE IDENTIFICATION OF CATECHOL O-METHYLTRANSFERASE MODULATORS” (Hoffman-La Roche Inc., priority 2010, published 2013)

Molecular target: human COMT (Homo sapiens, UniProt P21964)
Conditions: SAM limited (500 nM); Alexa Fluor 488-Nitrocatechol substrate; FIG. 5
Procedure: The term “kinetic readout” refers to the difference of the fluorescent signal measured at two certain time points in the linear part of an enzymatic reaction. One measurement is done at the beginning of the enzymatic reaction (start-point) and after an incubation time a second readout is performed (end-point). The final signal is then calculated in rfu/min as (rfu(end-point)—rfu(start-point))/incubation time. (rfu: relative fluorescence units)
384-well microtiter plate, Corning black with flat clear bottom, non binding surface, polystyrene (ref. 3655)
Reagent and Buffer Stock Solutions: • Buffer stock solutions: • M Phosphate buffer pH 7.6 (Na2HPO4 Fluka 71644, NaH2PO4 Merck 6346.0500) stored at 4° C. • 580 mM MgCl2 (Merck 1.0833.0250), stored at RT • 1 M CaCl2 stored at 4° C. • 65 mM DTT (Sigma D-0632), stored at −20° C. • Recombinant human COMT: prepared in house, stored at −80° C. • 4-Nitrocatechol-Alexa Fluor 488: prepared in house, 1.3 mM in DMSO, stored at RT in the dark • S-Adenosyl-methionine: 10 mM in H2O (Sigma-Aldirch A2804), stored at −20° C. […]
Readout: kinetic measurement on plate: vision TM reader (exc. 475(40) nm, em. 535(45) nm, intensity 7.5%, exposure time 1 s.

human COMT, sequence (P21964 whole entry): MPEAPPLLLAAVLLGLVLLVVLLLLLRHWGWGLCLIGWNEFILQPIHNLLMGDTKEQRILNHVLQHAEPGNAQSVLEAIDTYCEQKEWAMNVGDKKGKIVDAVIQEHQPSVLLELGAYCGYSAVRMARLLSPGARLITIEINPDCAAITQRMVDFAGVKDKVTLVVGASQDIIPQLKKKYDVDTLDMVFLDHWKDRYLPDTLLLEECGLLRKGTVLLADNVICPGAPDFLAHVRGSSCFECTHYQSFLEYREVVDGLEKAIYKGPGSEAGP

NCCc1ccc(O)c(O)c1 [dopamine]
kinetic fluorescence readout plateau as a function of compound concentration: Decreasing plateaus were reached with increasing dopamine concentrations
